Results from PMC3441706 (PLoS ONE, 2012).

Legend:
[1] = test system: HCT116 p53+/+ or p53−/− cells; assay: Determination of p53 status dependency; format: cell-based, human; conditions: HCT116 p53+/+ vs p53−/−, 72 hours, viable cell numbers
Protocol: (§1) The isogenic colon carcinoma cells lines HCT116 p53+/+ or p53−/− and RKO p53+/+ or p53−/− were cultured in 12-well plates. After a recovery period of 24 hours, NVX-412 or Nutlin-3 was added in fresh growth medium at the indicated concentrations. […] After 24 or 72 hours cell numbers were determined with a Beckman Coulter ViCell XR.

[2] = test system: RKO p53+/+ or p53−/− cells; assay: Determination of p53 status dependency; format: cell-based, human; conditions: RKO p53+/+ vs p53−/−, 72 hours, viable cell numbers
Protocol: as §1

HT-29 cells [3] = assay: Flow cytometric cell cycle analysis; format: cell-based, human; conditions: HT-29, 24 hours, IC50 concentration, 0.5 and 1 µM
Protocol: (§2) HT-29, HeLa and HCT116 cells were plated in 6-well plates. […] CPT was used at 50 nM and 1 µM. To analyze the cell cycle distribution, cells were collected after 24 hours of incubation and washed with PBS. Cells were fixed in 70% ethanol for at least 2 hours. For analysis, cells were transferred into PBS, incubated with RNAse A (0.04 µg/ml final concentration) for 30 minutes at 37°C, treated with […] propidium iodide for 30 min at 4°C and then analyzed by flow cytometry using BD FACScan (Becton, Dickinson and Company, Franklin Lakes, NJ, USA). The resulting DNA histograms were quantified using ModFit LT (Verity Software House, Topsham, ME, USA).

HeLa cells = assay: Flow cytometric cell cycle analysis; format: cell-based, human; conditions: 24 hours, IC50 concentration, 0.5 and 1 µM
Protocol: as §2

HCT116 cells = assay: Flow cytometric cell cycle analysis; format: cell-based, human; conditions: HCT116, 24 hours, IC50 concentration, 0.5 and 1 µM
Protocol: as §2

Leukemia cell lines = assay: NCI-60 DTP human tumor cell line screen (sulphorhodamine B); format: cell-based; conditions: 6 cell lines, 48 hours incubation
Protocol: (§3) NVX-412 was included in an anti-cancer activity screen by the National Cancer Institute (NCI). The compound was tested against 59 different human tumor cell lines, representing leukemia, melanoma and cancers of the lung, colon, brain, ovary, breast, prostate, and kidney (for a complete list of cell lines please refer to Shoemaker et al. 2006 [5]). The methodology of this in vitro cancer screen is described in detail on the NCI website (http://dtp.nci.nih.gov/branches/btb/ivclsp.html). Briefly, the human tumor cell lines of the cancer screening panel were grown in RPMI 1640 medium containing 5% FCS and 2 mM L-glutamine in 96-well plates at densities ranging from 5,000 to 40,000 cells/well. After 24 hours the experimental drug was added at 5 concentrations plus control and cells were incubated for additional 48 hours. For determination of the growth-inhibitory effect of the compound a sulphorhodamine B assay was performed that employs a chemical fixation step at the end of drug treatment and a subsequent staining for 10 minutes. After a washing step, absorbance was determined at 515 nm. Three different dose response parameters are then calculated: growth inhibition of 50% (GI50), which is the drug concentration resulting in a 50% reduction in the net protein increase, the drug concentration resulting in total growth inhibition (TGI) and the LC50, indicating a net loss of cells following treatment.

Melanoma cell lines = assay: as above; format: cell-based; conditions: 9 cell lines, 48 hours incubation
Protocol: as §3

[4] = test system: Prostate Cancer cell lines; assay: as above; format: cell-based; conditions: 2 cell lines, 48 hours incubation
Protocol: as §3

Colon Cancer cell lines = assay: as above; format: cell-based; conditions: 7 cell lines, 48 hours incubation
Protocol: as §3

[5] = test system: Ovarian Cancer cell lines; assay: as above; format: cell-based; conditions: 6 cell lines, 48 hours incubation
Protocol: as §3

[6] = test system: Central Nervous System Cancer cell lines; assay: as above; format: cell-based; conditions: 5 cell lines, 48 hours incubation
Protocol: as §3

Breast Cancer cell lines = assay: as above; format: cell-based; conditions: 5 cell lines, 48 hours incubation
Protocol: as §3

Renal Cancer cell lines = assay: as above; format: cell-based; conditions: 8 cell lines, 48 hours incubation
Protocol: as §3

[7] = test system: Non-Small Cell Lung Cancer cell lines; assay: as above; format: cell-based; conditions: 9 cell lines, 48 hours incubation
Protocol: as §3

GL-1 = assay: Cytotoxicity assay (cell counting); format: cell-based; conditions: Canis lupus familiaris; GL-1, canine B-cell leukemia; 72 hours incubation
Protocol: (§4) Cells were plated in 24-well plates. After cells were allowed to recover for 24 hours, NVX-412 was added in fresh growth medium. The maximal DMSO concentration reached in all experiments was below 0.01%. Respective control experiments at the highest DMSO concentration were performed in order to rule out DMSO-induced effects. After 72 hours incubation the proportion of viable cells was determined by cell counting with a Z1 Coulter Particle Counter (Beckman Coulter, Vienna, AUT), a ViCell XR (Beckman Coulter, Vienna, AUT) or a CASY® Cell Counter (Schärfe, Reutlingen, Germany). Cytotoxicity was expressed as IC50 values that were derived from the corresponding dose–response curves.

Ramos = assay: Cytotoxicity assay (cell counting); format: cell-based; conditions: Homo sapiens, Burkitt Lymphoma, 72 hours incubation
Protocol: as §4

Raji = assay: Cytotoxicity assay (cell counting); format: cell-based; conditions: Homo sapiens, Burkitt lymphoma, 72 hours incubation
Protocol: as §4

CL-1 = assay: Cytotoxicity assay (cell counting); format: cell-based; conditions: Canis lupus familiaris; CL-1, canine T-cell lymphoma; 72 hours incubation
Protocol: as §4

HeLa = assay: Cytotoxicity assay (cell counting); format: cell-based; conditions: Homo sapiens, cervix carcinoma, 72 hours incubation
Protocol: as §4

MCF-7 = assay: Cytotoxicity assay (cell counting); format: cell-based; conditions: Homo sapiens, MCF7; MCF-7, breast adenocarcinoma; 72 hours incubation
Protocol: as §4

RKO = assay: Cytotoxicity assay (cell counting); format: cell-based; conditions: Homo sapiens, colon carcinoma, 72 hours incubation
Protocol: as §4

OSW = assay: Cytotoxicity assay (cell counting); format: cell-based; conditions: Canis lupus familiaris, canine T-cell lymphoma, 72 hours incubation
Protocol: as §4

K562 = assay: Cytotoxicity assay (cell counting); format: cell-based; conditions: Homo sapiens; K562, CML; 72 hours incubation
Protocol: as §4

HT-29 cells [8] = assay: Proliferation kinetics; format: cell-based, human
Protocol: HT-29 cells were plated (2×10^4 cells/well) in 24-well plates. After a recovery period of 24 hours, NVX-412 was added in fresh growth medium to final concentrations of 0, 300 and 1000 nM, respectively. After 24, 48 and 72 hours cell numbers were determined with a Z1 Coulter Particle Counter.

## O=C(NNc1nc2cc(F)ccc2n2cccc12)c1cnccn1 [NVX-412, Pyrazine-2-carboxylic acid N’- (7-fluoro-pyrrolo[1,2-α]quinoxalin-4-yl)-hydrazide-oxalic acid co-crystal]
[1]
  p53 status dependency of sensitivity: the p53 status does not influence the sensitivity to NVX-412
[2]
  p53 status dependency of sensitivity: the p53 status does not influence the sensitivity to NVX-412
HT-29 cells [3]
  Cell cycle distribution: dose-dependent increase in the fraction of S-phase cells
HeLa cells
  Cell cycle distribution: dose-dependent increase in the fraction of S-phase cells
HCT116 cells
  Cell cycle distribution: dose-dependent increase in the fraction of S-phase cells
Leukemia cell lines
  IC50: 62 nM
Melanoma cell lines
  IC50: 214 nM
[4]
  IC50: 276 nM
Colon Cancer cell lines
  IC50: 169 nM
[5]
  IC50: 377 nM
[6]
  IC50: 167 nM
Breast Cancer cell lines
  IC50: 266 nM
Renal Cancer cell lines
  IC50: 182 nM
[7]
  IC50: 174 nM
GL-1
  IC50: 105 nM
Ramos
  IC50: 170 nM
Raji
  IC50: 60 nM
CL-1
  IC50: 170 nM
HeLa
  IC50: 210 nM
MCF-7
  IC50: 150 nM
RKO
  IC50: 150 nM
OSW
  IC50: 103 nM
K562
  IC50: 540 nM
HT-29 cells [8]; HT-29, 300 nM (IC50), after 2 days, compared to untreated control
  Proliferation of cells: significantly decreased
HT-29 cells [8]; HT-29, 1 µM, 3 days of treatment
  Cell numbers: cell numbers started to decline below the numbers of cells seeded
